*1 amine or outer side, *2 acyl side, *3 side chain or, on linkers, in order; H or OH if unused. Where a SMILES comes first, the peptide text is derived from it. [ ]: non-standard residue; d: D form. X1 = O=C([C@@H]1C[C@H](n2cc([C]34[CH]5[CH]6[CH]7[CH]3[Fe]6754389%10[CH]4[CH]3[CH]8[CH]9[CH]4%10)nn2)CN1[*:1])[*:2]; X2 = O=C([C@@H]1C[C@H](n2nncc2[C]23[CH]4[CH]5[CH]6[CH]2[Fe]56432789[CH]3[CH]2[CH]7[CH]8[CH]39)CN1[*:1])[*:2]; Bta = N[C@@H](Cc1csc2ccccc12)C(=O)O
Key:
gp120YU-2 S375H = gp120YU-2 S375H (Human immunodeficiency virus type 1 group M subtype B, UniProt P35961, S370H); experiment: Competition SPR: inhibition of gp120 S375H binding to sCD4; set-up: species or system HIV-1
wt gp120YU-2 = wt gp120YU-2 (Human immunodeficiency virus type 1 group M subtype B, UniProt P35961); experiment: Competition SPR: inhibition of wt gp120YU-2 binding to immobilized sCD4; set-up: species or system HIV-1; details: relative to peptide 1

Compound	inhibition of S375H mutant binding to sCD4 (gp120YU-2 S375H)	weaker binding than peptide 1 (wt gp120YU-2) [fold]
CC[C@H](C)[C@H](N)C(=O)N[C@@H](CC(N)=O)C(=O)N[C@@H](CC(N)=O)C(=O)N[C@H](C(=O)N1C[C@@H](n2cc([C]34[CH]5[CH]6[CH]7[CH]3[Fe]6754389%10[CH]4[CH]3[CH]8[CH]9[CH]4%10)nn2)C[C@H]1C(=O)N[C@@H](Cc1csc2ccccc12)C(N)=O)[C@@H](C)CC (some centres unmarked) [peptide 3] (H-INNI[X1][Bta]-NH2)	resistant	–
CC[C@H](C)[C@H](N)C(=O)N[C@@H](CC(N)=O)C(=O)N[C@@H](CC(N)=O)C(=O)N[C@H](C(=O)N1C[C@@H](n2nncc2[C]23[CH]4[CH]5[CH]6[CH]2[Fe]56432789[CH]3[CH]2[CH]7[CH]8[CH]39)C[C@H]1C(=O)N[C@@H](Cc1c[nH]c2ccccc12)C(N)=O)[C@@H](C)CC (some centres unmarked) [peptide 6] (H-INNI[X2]W-NH2)	–	~200

— article PMC4497506 (Journal of medicinal chemistry, 2015)
